Reference: US20220160669A1, “PARENTERAL NUTRITION FORMULATION” (BAXTER INTERNATIONAL INC., priority 2020, published 2022)
“Also recorded” adds a separate entry of the source.

Assays:
Assay type in all cases: in vivo, pig
[1] = tested on: Neonatal Yorkshire/Landrace cross bred piglets; assay: Duodenal mucosal resistance (Ussing chamber), PN-fed neonatal piglets; parameters: key to Duodenal Mucosal Resistance (Ussing chamber): +++ indicate P < 0.01; ++ indicates P < 0.05; + indicates positive trends; = denotes no significant P value; − denotes negative trends; key to Duodenal mucosal resistance, Grouping (Fisher's LSD test): Groups that do not share a letter are significantly different; ab: Groups that do not share a letter are significantly different; b: Groups that do not share a letter are significantly different; details: for Mean duodenal mucosal resistance: N 12; for Duodenal mucosal resistance, Grouping (Fisher's LSD test): PN group a, EN group b; for Duodenal Mucosal Resistance (Ussing chamber): compared to standard PN (s-PN)
Source text: It is known also that there is a relationship between intestinal epithelial integrity and intestinal health (Thomson et al., The Ussing chamber system for measuring intestinal permeability in health and disease, BMC Gastroenterology 2019; 19:98). Impairment of barrier function has been linked to intestinal diseases such as, for example, ulcerative colitis and Crohn's disease. The so-called Ussing system offers an ex vivo measurement of the permeability or duodenal mucosal resistance. The system allows to measure said duodenal mucosal (transepithelial) resistance (TER), which can be determined to give an overall measurement of gut integrity. A low TER value is indicative of increased permeability. Prior studies have shown that decreased TER under inflammatory conditions was associated with down regulation of “sealing” tight junctional proteins. Accordingly, determining epithelial integrity by means of the Ussing chamber constituted one option to assess the influence of various nutritional options (e.g. EN vs PN) and various PN compositions (see Example 3.5) on gut health and specifically on local inflammatory incidents.
Neonatal Yorkshire/Landrace cross bred piglets (n=72; six at a time from the same litter, repeating 12 times) were obtained from Oak Hill Genetics (Ewing, Ill.) after 48-hour sow reared for colostrum consumption and iron supplementation.
Duodenal mucosal resistance was determined according to known methods and according to Tappenden et al., Short-Chain Fatty Acid-Supplemented Total Parenteral Nutrition Enhances Functional Adaptation to Intestinal Resection in Rats. Gastroenterology 1997; 112:792-802. Pieces of intestine (1 cm^2) were cut out, and the tissue was mounted as flat sheets in incubation chambers containing oxygenated Krebs' bicarbonate buffer (pH 7.4) at 37° C. Tissue discs were preincubated in this buffer for 15 minutes to allow equilibration at this temperature. After preincubation, the chambers were transferred to other beakers containing [^3H]inulin and various 14C probe molecules in oxygenated Krebs' bicarbonate (pH 7.4 and 37° C.). The concentration of solutes was 4, 8, 16, 32, or 64 mmol/L for D-glucose and 16 mmol/L for L-glucose. The preincubation and incubation solutions were mixed at identical stirring rates with circular magnetic bars, and the stirring rates were adjusted by means of a strobe light. A stirring rate of 600 rpm was selected to achieve low effective resistance of the intestinal unstirred water. The experiment was terminated by removing the chambers and quickly rinsing the tissue in cold saline for approximately 5 seconds. The exposed mucosal tissue was then cut out of the chamber with a circular steel punch. For all probes, the tissue was dried overnight in an oven at 55° C. The dry weight of the tissue was determined, the sample was saponified with 0.75N NaOH, scintillation fluid was added (Beckman Ready Solv HP; Beckman, Mississauga, ON), and radioactivity was determined by means of […] an external standardization technique to correct for variable quenching of the two isotopes. The mucosal weight was determined after scraping of the intestine from adjacent samples not used for uptake studies. The weight of the mucosa in the samples used to measure uptake was determined by multiplying the dry weight of the intestinal sample by the percentage of the intestinal wall comprised of mucosa.

[2] = tested on: Neonatal Yorkshire/Landrace cross bred piglets; assay: Cognitive assessment by eyeblink conditioning; parameters: key: + denotes a positive effect (compared to standard PN); ++ a very positive effect; − denotes no difference; details: compared to standard PN
Source text: Eyeblink conditioning is an established Pavlovian method to assess the cerebellum and associated brainstem circuitry with hippocampus involvement that are essential for learning and memory. The eyeblink conditioning procedure took place in a sound-attenuating chamber. A fan was inside the chamber and ran throughout the experiment for ambient noise (70 dB). A speaker mounted to the wall of the chamber delivered the tone conditioned stimulus (CS). A small plastic air puff delivery nozzle (San Diego Instruments, San Diego, Calif.) was secured at approximately 2 cm from the piglet's left eye to deliver the unconditioned stimulus (US). After adaptation to the conditioning apparatus on study day 3, a total of five CS-US conditioning sessions occurred on study days 4-8 following. Each conditioning session consisted of 90 CS-US paired trials and 10 CS alone trials for a total of 100 trials/session. Every tenth trial was a CS alone trial. The CS-US paired trials included: a 500 ms auditory CS (1 kHz, 85 dB tone), a 400 ms interstimulus interval (ISI), followed by a 100 ms corneal airpuff US (10 psi). Both the CS and US were co-terminated at the exact same time. The CS alone trials consisted of a 500 ms auditory CS (1 kHz, 85 dB tone) only. There were random inter-trial intervals of 20 seconds throughout each session. Each conditioning session lasted no longer than 35 minutes. The San Diego Instruments eyeblink software was used to record conditioning session moment-to-moment infrared-reflectance data.

[3] = tested on: Neonatal Yorkshire/Landrace cross bred piglets; assay: Duodenal mucosal resistance (Ussing chamber), PN-fed neonatal piglets; parameters: key: + denotes a positive effect (compared to standard PN); ++ a very positive effect; − denotes no difference; details: 10 days, compared to standard PN

## CCCCCCCCCCCCCCCC(=O)OCC(COC(=O)CCC)OC(=O)CCCCCCCCCCCCCCC (stereo not drawn) [1,2-Dipalmitoyl 3-butyryl glycerol]
[1]; 10 mmol/L TPN (Groups A, C, D)
  Mean duodenal mucosal resistance: 15.8264
  Duodenal mucosal resistance, Grouping (Fisher's LSD test): ab
[1]; 10 mmol/L TPN (Groups A, C, D), listed as D
  duodenal mucosal resistance, in words: significantly different from the PN; also recorded: almost as good as in Group E
[2]; 10 mmol/L in PN
  Cognitive: −
[3]; 10 mmol/L in PN
  Tight junctions: −

## L-arginine, butanoate (3:4) [Arginine butyrate]
[1]; 10 mmol/L TPN (Groups A, C, D)
  duodenal mucosal resistance, in words: significantly lower loss of mucosal resistance compared to the other intervention groups
  Mean duodenal mucosal resistance: 8.2593
  Duodenal mucosal resistance, Grouping (Fisher's LSD test): b
[1]; 10 mmol/L TPN (Groups A, C, D), listed as C
  duodenal mucosal resistance, in words: significantly different from the PN
[1]; 10 mmol/L
  Duodenal Mucosal Resistance (Ussing chamber): ++^2 (++ indicates P < 0.05)
[2]; 10 mmol/L in PN
  Cognitive: −
[3]; 10 mmol/L in PN
  Tight junctions: ++

## CCCC(=O)OCC(COC(=O)CCC)OC(=O)CCC [Tributyrin]
[1]; 10 mmol/L TPN (Groups A, C, D)
  duodenal mucosal resistance, in words: significantly different from the PN
  Mean duodenal mucosal resistance: 21.8442
  Duodenal mucosal resistance, Grouping (Fisher's LSD test): ab
[1]; 10 mmol/L
  Duodenal Mucosal Resistance (Ussing chamber): =
[1]; 30 mmol/L TPN (Group B)
  duodenal mucosal resistance, in words: significantly different from the PN
  Mean duodenal mucosal resistance: 16.0234
  Duodenal mucosal resistance, Grouping (Fisher's LSD test): ab
[1]; 30 mmol/L
  Duodenal Mucosal Resistance (Ussing chamber): =
[2]; 10 mmol/L in PN
  Cognitive: −
[2]; 30 mmol/L in PN
  Cognitive: −
[3]; 10 mmol/L in PN
  Tight junctions: −
[3]; 30 mmol/L in PN
  Tight junctions: −
